The record followed here is patent US11364248B2 (AMGEN INC., priority 2017, dated 2022).

The test has as its system OPM-2. The test is described as follows: Cell Viability Assay (OPM-2 10 FBS). The class given is cell-based, human. The settings on record: OPM-2 cells, 16 h, CellTiter-Glo, read-out: OPM-2 10% FBS IC50 IP. How it is done: Cell Viability Assay (OPM-2 10 FBS)
The human multiple myeloma cell line, OPM-2, was cultured in complete growth medium containing RPMI 1640 and 10% fetal bovine serum (FBS). Cells were seeded into 384-well plates at 3000 cells/well density in complete growth medium containing 10% FBS, and incubated for 16 h with serially diluted test compounds in a 37° C. incubator with 5% CO2. Cell viability was tested using CellTiter-Glo® assay (Promega, Madison, Wis.) according to the manufacturer recommendations. Luminescence was determined using an EnVision® Multilabel plate reader 25 min after the addition of detection reagent. IC50 values were then calculated with Xlfit using a logistical 4-parameter fit model in GraphPad Prism (GraphPad Software, San Diego, Calif.) or in Genedata Screener® (Genedata, Basel, Switzerland).
In general terms: ATP-based viability assays read luminescence as a measure of living cells.
Consider `COCC[C@@H]1[C@@H](C)CCC[C@H]([C@H]2OC[C@@H](N(C)C)CO2)[C@@H]2CC[C@H]2CN2C[C@@]3(CCCc4cc(Cl)ccc43)COc3ccc(cc32)C(=O)NS1(=O)=O` (stereo in doubt) [Example 83], for which the IC50 worked out at 540 nM.
The same measure for `C[C@@H]1[C@@H](C)CCC[C@H]([C@H]2OC[C@@H](N(C)C)CO2)[C@@H]2CC[C@H]2CN2C[C@@]3(CCCc4cc(Cl)ccc43)COc3ccc(nc32)C(=O)NS1(=O)=O` (stereo in doubt) [Example 93, (1S,3′R,6′R,7′S,11′S,12′R)-6-chloro-7′-(cis-5-(dimethylamino)-1,3-dioxan-2-yl)-11′,12′-dimethyl-3,4-dihydro-2H,15′H-spiro[naphthalene-1,22′-[20]oxo[13]thia[1,14,25]triazatetracyclo [14.7.2.0~3,6~.0~19,24~]pentacosa[16,18,24]trien]-15′-one 13′,13′-dioxide]: 34 nM; for `C[C@@H]1[C@@H](C)CCC[C@H]([C@H]2OC[C@@H](N(C)C)CO2)[C@@H]2CC[C@H]2CN2C[C@@]3(CCCc4cc(Cl)ccc43)COc3ccc(nc32)C(=O)NS1(=O)=O` (stereo in doubt) [Example 94]: 257 nM.
As for `C[C@@H]1[C@@H](C)CCC[C@H]([C@H]2OC[C@@H](N(C)C)CO2)[C@@H]2CC[C@H]2CN2C[C@@]3(CCCc4cc(Cl)ccc43)COc3ccc(nc32)C(=O)NS1(=O)=O` (stereo in doubt) [Example 95], the figure is 108 nM; as for `C[C@@H]1[C@@H](C)CCC[C@H]([C@H]2OC[C@@H](N3CCC3)CO2)[C@@H]2CC[C@H]2CN2C[C@@]3(CCCc4cc(Cl)ccc43)COc3ccc(cc32)C(=O)NS1(=O)=O` [Example 20, (1S,3′R,6′R,7′S,11′S,12′R)-7′-(cis-5-(1-azetidinyl)-1,3-dioxan-2-yl)-6-chloro-11′,12′-dimethyl-3,4-dihydro-2H,15′H-spiro[naphthalene-1,22′-[20]oxa[13]thia[1,14]diazatetracyclo [14.7.2.0~3,6~.0~19,24~]pentacosa[16,18,24]trien]-15′-one 13′,13′-dioxide], 41 nM.
As for `C[C@@H]1[C@@H](C)CCC[C@H]([C@H]2OC[C@@H](N3CCC3)CO2)[C@@H]2CC[C@H]2CN2C[C@@]3(CCCc4cc(Cl)ccc43)COc3ccc(cc32)C(=O)NS1(=O)=O` [Example 21, (1S,3′R,6′R,7′S,11′S,12′R)-7′-(cis-5-(1-azetidinyl)-1,3-dioxan-2-yl)-6-chloro-11′,12′-dimethyl-3,4-dihydro-2H,15′H-spiro[naphthalene-1,22′-[20]oxa[13]thia[1,14]diazatetracyclo [14.7.2.0~3,6~.0~19,24~]pentacosa[16,18,24]trien]-15′-one 13′,13′-dioxide], the figure is 521 nM; as for `C[C@@H]1[C@@H](C)CCC[C@H]([C@H]2OC[C@@H](N3CC(F)(F)C3)CO2)[C@@H]2CC[C@H]2CN2C[C@@]3(CCCc4cc(Cl)ccc43)COc3ccc(cc32)C(=O)NS1(=O)=O` [Example 31, (1S,3′R,6′R,7′S,11′S,12′R)-6-chloro-7′-(cis-5-(3,3-difluoro-1-azetidinyl)-1,3-dioxan-2-yl)-11′,12′-dimethyl-3,4-dihydro-2H,15′H-spiro[naphthalene-1,22′-[20]oxa[13]thia[1,14]diazatetracyclo [14.7.2.0~3,6~.0~19,24~]pentacosa[16,18,24]trien]-15′-one 13′,13′-dioxide], 204 nM.
Consider `C[C@@H]1[C@@H](C)CCC[C@H]([C@H]2OC[C@@H](N3CC(F)(F)C3)CO2)[C@@H]2CC[C@H]2CN2C[C@@]3(CCCc4cc(Cl)ccc43)COc3ccc(cc32)C(=O)NS1(=O)=O` [Example 32, (1S,3′R,6′R,7′S,11′S,12′R)-6-chloro-7′-(cis-5-(3,3-difluoro-1-azetidinyl)-1,3-dioxan-2-yl)-11′,12′-dimethyl-3,4-dihydro-2H,15′H-spiro[naphthalene-1,22′-[20]oxa[13]thia[1,14]diazatetracyclo [14.7.2.0~3,6~.0~19,24~]pentacosa[16,18,24]trien]-15′-one 13′,13′-dioxide], for which the half-maximal inhibitory concentration (IC50) is 1940 nM.

The term IC50 denotes the concentration that gives 50% inhibition.
